Here are results for two compounds from patent US8273787B2, “Activated cytotoxic compounds for attachment to targeting molecules for the treatment of mammalian disease conditions” (Onconova Therapeutics, Inc, priority 2006, dated 2012).

In one assay the test system is CEM/C2 (RESISTANT). Kind of assay: growth inhibition, CEM/C2 (resistant). Format: cell-based, Human. As to the method:
(§1) Two compounds were selected from our library of cytotoxic molecules for immunoconjugation since they both have IC50 values in the low nanomolar range. Various tumor cell lines (ATCC) were treated for 96 hours in the presence of increasing concentrations of each compound and the total number of viable cells remaining was determined after 96 hours of exposure. The IC50 value was determined to be the amount of drug required to inhibit the growth of each cell line 50% as compared to vehicle treated cells.
(§2) Another extremely important predictive factor is the ability of these compounds to kill cell lines overexpressing multiple drug resistance (MDR) genes. A very high percentage of cancer patient relapses are due to some form of resistance to traditional chemotherapy. Of these patients, the vast majority express one or more of the MDR genes within the ABC transport gene family. Overexpression of these genes increases the efflux of compounds that are recognized by these pumping systems. […] Onconova's benzyl styryl sulfone compounds are not recognized by the MDR-1 gene and therefore provide an advantage over other highly toxic drugs including but not limited to the taxanes, doxorubicin, etoposide, and vinca-alkaloids. […] MES-SA/Dx5, uterine sarcoma, and […], ovarian, are both classical multidrug resistant cell lines that are cross resistant to the taxanes and anthracyclins. Harker, W G, and Sikic, B. I., Multidrug (Pleiotropic) Resistance In Doxorubicin-Selected Variants Of The Human Sarcoma Cell Line MES-SA, Cancer Res. 45(9):4091-6 (1985). MES-SA/Dx5 and Apr. […] Fujimori, A., et al., Mutation At The Catalytic Site Of Topoisomerase I In CEM/C2, A Human Leukemia Cell Line Resistant To Camptothecin, Cancer Res. 55(6): 1339-46 (1995). ON 01500 and ON 013100, for example, are both extremely active against these resistant cell lines.

The next assay has as its system CEM. Kind of assay: 96 hour growth inhibition, CEM. Format: cell-based. The settings on record: Homo sapiens, CCRF-CEM; CEM (PARENTAL). As to the method: as §1, §2
The next assay concerns MES-SA/Dx5 (RESISTANT). The assay can be described thus: growth inhibition, MES-SA/Dx5 (resistant). Format: cell-based, Human. On the procedure:
as §1, §2

The test system of the next assay is 2008/17/4 (RESISTANT). Kind of assay: growth inhibition, 2008/17/4 (resistant). Format: cell-based. On the procedure: as §1, §2
The test system of a further assay is 2008 (PARENTAL). Kind of assay: growth inhibition, 2008 (parental). Format: cell-based. As to conditions: ovarian. On the procedure: as §1, §2
In a further assay the test system is MES-SA (PARENTAL). The assay can be described thus: growth inhibition, MES-SA (parental). The assay is classed as cell-based. As to conditions: Homo sapiens, uterine sarcoma. As to the method: as §1, §2

Each structure is given as a SMILES string.

Broadly, the IC50 is the concentration at which inhibition is half-maximal.

In the case of `CC[C@@]1(O)C(=O)OCc2c1cc1n(c2=O)Cc2cc3ccccc3nc2-1` [CAMPTOTHECIN, reference compound], in the assay on CEM/C2 (RESISTANT) (CEM/C2 (RESISTANT) versus CEM (PARENTAL)), the RSIST-ANCE was 500. In addition, the IC50 in the assay with CEM/C2 (RESISTANT) (Homo sapiens, CEM/C2 (RESISTANT), non classical multiple drug resistant) is 1000 nM; with CEM, 2 nM.

Turning to `CC(=O)O[C@H]1C(=O)[C@@]2(C)[C@H]([C@H](OC(=O)c3ccccc3)[C@]3(O)C[C@H](OC(=O)[C@H](O)[C@@H](NC(=O)c4ccccc4)c4ccccc4)C(C)=C1C3(C)C)[C@]1(OC(C)=O)CO[C@@H]1C[C@@H]2O` [PACLITAXEL, reference compound], the IC50 turned out to be 750 nM in the assay on MES-SA/Dx5 (RESISTANT) (Homo sapiens, MES-SA/Dx5 (RESISTANT), uterine sarcoma, multidrug resistant); 2000 nM with 2008/17/4 (RESISTANT) (2008/17/4 (RESISTANT), ovarian, multidrug resistant); 3 nM with 2008 (PARENTAL); 4 nM in the assay with MES-SA (PARENTAL). In addition, the RSIST-ANCE turned out to be 188 with MES-SA/Dx5 (RESISTANT) (MES-SA/Dx5 (RESISTANT) versus MES-SA (PARENTAL)) and 667 in the assay with 2008/17/4 (RESISTANT) (2008/17/4 (RESISTANT) versus 2008 (PARENTAL)). Further, the fold resistant in the assay on MES-SA/Dx5 (RESISTANT) (MES-SA/Dx5 versus parental) is 188 fold; in the assay on 2008/17/4 (RESISTANT) (2008/17/4 (printed Apr. 17, 2008) versus parental), 667 fold.
